Measurements reported in US20200069592A1, “HSP90 INHIBITOR ORAL FORMULATIONS AND RELATED METHODS” (Samus Therapeutics, Inc., priority 2017, published 2020).
Where two headings read alike, the source gives them in different places.

Legend:
[1] = female, Sprague Dawley, rat, in vivo, po
Description: (§1) The animals used in this study were female Sprague Dawley Rats physiologically normal. At the time of receipt, mice were 200-225 g in weight. […] Ninety-four total animals were observed thereafter. The parenteral administration is performed by tail vein injection.
(§2) Compound 2 was provided in free base form and stored at −20° C., protected from light. Compound 2 was formulated in dosage form immediately prior to use. For oral administration of Compound 2 in ORA-Plus® drinking solution, Compound 2 was suspended in drinking solution ORA-Plus® (Perrigo; Minneapolis, Minn.). First, a mortar and pestle were used to smooth out the Compound 2 powder, then a small amount of ORA-Plus® was added, and next, the mixture was triturated to a thick, smooth paste. The remainder of the ORA-Plus® was added by geometric dilution. The Compound 2 free base and ORA-Plus® mixture was dispensed in a tight, light resistant amber bottle with appropriate labeling. This mixture was shaken well before using, protected from light and kept refrigerated if dosing was delayed. For oral administration of Compound 2 in citric acid buffer with Captisol®, Compound 2 free base powder was dissolved or suspended into 30% Captisol® (Cydex Pharmaceuticals; Lawrence, Kans.) in 60 mM citrate buffer (pH˜4.2) (citric acid and sodium citrate dehydrate (Sigma-Aldrich; St. Louis Mo.)) in sterile water) to each group's working concentration. […] A magnetic stir-bar was used to mix dosing solution, followed by sonication. For intravenous administration, Compound 2 free base powder was dissolved into 15% Captisol® in 5 mM citrate buffer (pH˜4.2) to each group's working concentration. A magnetic stirbar was used to mix dosing solution, followed by sonication. IV dosing solution of Compound 2 free base was filtered with a 0.2 m PVDF filter (Pall Life Sciences; Port Washington, N.Y.) prior to administration.
(§3) Dose levels of Compound 1 were based on the free base, not the salt.
(§4) Animals were randomized using random equilibration of body weights on Day 1 into one of 19 study groups, as shown in Table 23 (Groups 1-19), with 5 animals in each group, except for the 4 animals in Group 19. Body weights were collected Days 1, 2, 3, and/or 4 to accommodate data collection of staggered groups. Gross observations of body weight were noted during the course of the study.

[2] = Plasma pharmacokinetics after single PO or IV administration (Example 5), LC-MS/MS; settings: female, Sprague-Dawley, rat, plasma, dosed as 2HCl; for AUC(0-t): AUC0-last (hr*ng/mL) Mean ± StdDev; for Cmax: Cmax (ng/mL) Mean ± StdDev; for Tmax: Tmax (hr) Mean ± StdDev
Description: as §1, §2, §3, §4

[3] = iv, 12 mg/kg, Group 18: 12 mg/kg IV, 0.9% Saline
[4] = iv, 24 mg/kg, Group 19: 24 mg/kg IV, 0.9% Saline
[5] = po, 24 mg/kg, Group 11: 24 mg/kg PO, ORA-Plus, single dose
[6] = po, 36 mg/kg, Group 12: 36 mg/kg PO, ORA-Plus
[7] = po, 36 mg/kg, Group 15: 36 mg/kg PO, 0.5% Methylcellulose in water
[8] = po, 48 mg/kg, Group 13: 48 mg/kg PO, ORA-Plus
[9] = po, 48 mg/kg, Group 16: 48 mg/kg PO, 0.5% Methylcellulose in water
[10] = po, 60 mg/kg, Group 14: 60 mg/kg PO, ORA-Plus
[11] = po, 60 mg/kg, Group 17: 60 mg/kg PO, 0.5% Methylcellulose in water

CC(C)NCCCn1c(Sc2cc3c(cc2I)OCO3)nc2c(N)ncnc21 [Compound 1]
% AUC0-last ORA vs methylcellulose Mean ± StdDev ([1]; 36 mg/kg): 119.11 ± 45.91% | % Cmax ORA vs methylcellulose Mean ± StdDev ([1]; 36 mg/kg): 118.75 ± 64.56% | % AUC0-last ORA vs methylcellulose Mean ± StdDev ([1]; 48 mg/kg): 111.81 ± 69.18% | % Cmax ORA vs methylcellulose Mean ± StdDev ([1]; 48 mg/kg): 89.30 ± 37.98% | % AUC0-last ORA vs methylcellulose Mean ± StdDev ([1]; 60 mg/kg): 70.33 ± 23.05% | % Cmax ORA vs methylcellulose Mean ± StdDev ([1]; 60 mg/kg): 66.16 ± 17.44% | AUC(0-t) [2, 3]: 2.47 ± 0.573 µg·h/mL | Cmax [2, 3]: 1.28 ± 0.325 µg/mL | Tmax [2, 3]: 0.25 h | AUC(0-t) [2, 4]: 5.5 ± 2.8 µg·h/mL | Cmax [2, 4]: 2.08 ± 0.0793 µg/mL | Tmax [2, 4]: 0.31 ± 0.13 h | AUC(0-t) [2, 5]: 2.7 ± 0.462 µg·h/mL | Cmax [2, 5]: 0.807 ± 0.214 µg/mL | Tmax [2, 5]: 2 h | AUC(0-t) [2, 6]: 3.22 ± 0.87 µg·h/mL | AUC(0-t) [2, 7]: 2.85 ± 0.919 µg·h/mL | Cmax [2, 6]: 0.853 ± 0.193 µg/mL | Cmax [2, 7]: 0.812 ± 0.27 µg/mL | Tmax [2, 6]: 2 h | Tmax [2, 7]: 2.2 ± 1.1 h | AUC(0-t) [2, 8]: 6.5 ± 2.03 µg·h/mL | AUC(0-t) [2, 9]: 6.5 ± 1.69 µg·h/mL | Cmax [2, 8]: 1.42 ± 0.47 µg/mL | Cmax [2, 9]: 1.65 ± 0.271 µg/mL | Tmax [2, 8]: 2.4 ± 0.89 h | Tmax [2, 9]: 1.4 ± 0.55 h | AUC(0-t) [2, 10]: 4.87 ± 1.42 µg·h/mL | AUC(0-t) [2, 11]: 7.32 ± 2.44 µg·h/mL | Cmax [2, 10]: 1.12 ± 0.175 µg/mL | Cmax [2, 11]: 1.76 ± 0.458 µg/mL | Tmax [2, 10]: 3 ± 2 h | Tmax [2, 11]: 1.5 ± 0.71 h
